Values quoted from earlier work, collected in US7517991B2, “N-sulfonylpiperidine cannabinoid receptor 1 antagonists” (Bristol-Myers Squibb Company, priority 2004, dated 2009).
Like-named read-outs stand apart in the source and are kept apart here.

Tests used:
[1] = chronic administration for two weeks
[2] = human subjects, 16 week trial period, Phase IIb

SMILES	body weight [1]	body weight [2]
Cc1c(C(=O)NN2CCCCC2)nn(-c2ccc(Cl)cc2Cl)c1-c1ccc(I)cc1 [AM-251]	substantial body weight reduction	–
Cc1c(C(=O)NN2CCCCC2)nn(-c2ccc(Cl)cc2Cl)c1-c1ccc(Cl)cc1 [SR-141716]	–	dose-dependently reduced body weight
